# In publication PMC7507803 (ACS Pharmacology & Translational Science, 2020):
# Residues, ends and D or L forms follow the SMILES beside them. *: point of attachment. AMC = Cc1cc(=O)oc2cc(N*)ccc12; Boc = CC(C)(C)OC(=O)*
# Tests used:
# [1] = cited from earlier work
# SARS-CoV = details: mouse, in vivo; cited from earlier work
# trypsin = details: cited from earlier work
# [2] = biological target: Recombinant Human TMPRSS2 (Homo sapiens, UniProt O15393); test: TMPRSS2 fluorogenic biochemical assay
# [3] = system: SARS-CoV-2-S-mediated pseudotyped particle entry; details: cited from earlier work
# TMPRSS2 (aa 148–492) = details: TMPRSS2 biochemical screen; cited from earlier work
# prostasin = details: cited from earlier work
# Chain of Recombinant Human TMPRSS2 (O15393 106-492): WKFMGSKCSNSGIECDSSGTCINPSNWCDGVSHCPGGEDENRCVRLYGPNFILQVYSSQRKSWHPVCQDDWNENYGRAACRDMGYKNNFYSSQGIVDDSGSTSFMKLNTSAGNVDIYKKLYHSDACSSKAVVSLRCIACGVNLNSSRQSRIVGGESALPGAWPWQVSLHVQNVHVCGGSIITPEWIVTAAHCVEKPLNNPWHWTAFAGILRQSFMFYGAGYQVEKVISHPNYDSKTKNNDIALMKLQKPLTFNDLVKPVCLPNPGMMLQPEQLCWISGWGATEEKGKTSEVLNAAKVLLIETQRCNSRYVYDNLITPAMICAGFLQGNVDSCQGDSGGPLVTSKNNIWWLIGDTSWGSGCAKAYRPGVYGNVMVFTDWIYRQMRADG
structure (smiles),measurement,setting,value
"N=C(N)Nc1ccc(C(=O)Oc2ccc(CC(=O)O)cc2)cc1 [FOY-251, 4-(4-guanidinobenzoyloxy)phenylacetic acid]",mean terminal half-life,[1],60 min
N=C(N)c1ccc2cc(OC(=O)c3ccc(N=C(N)N)cc3)ccc2c1 [nafamostat],plasma half-life (t1/2),[1]; IV infusion,about 23 min
CN(C)C(=O)COC(=O)Cc1ccc(OC(=O)c2ccc(NC(=N)N)cc2)cc1 [camostat],SARS-CoV pathogenesis,SARS-CoV,mitigated SARS-CoV pathogenesis
same,IC50,trypsin,~50 nM
same,t1/2 of hydrolysis in plasma,[1]; plasma,< 1 min
CN(Cc1cc(Br)cc(Br)c1N)C1CCCCC1 [bromhexine],inhibition of TMPRSS2,"[2]; dose–response, listed as Bromhexine hydrochloride",no inhibition
same,inhibition of pseudotyped particle entry,[3],lack of inhibiting SARS-CoV-2-S-mediated pseudotyped particle entry
same,IC50,TMPRSS2 (aa 148–492),750 nM
Cc1cc(=O)oc2cc(NC(=O)[C@H](CCCNC(=N)N)NC(=O)[C@H](C)NC(=O)[C@H](CCC(N)=O)NC(=O)OC(C)(C)C)ccc12 [Boc-Gln-Ala-Arg-AMC] (Boc-Gln-Ala-Arg-{AMC}),released AMC,"[2]; 60 min, peptide 10 μM, TMPRSS2 1 μM, Tris-HCl pH8",27%
N=C(N)Nc1ccc(C(=O)O)cc1 [4-guanidinobenzoic acid],inhibition of prostasin,prostasin,do not inhibit
Nc1c(Br)cc(Br)cc1CN[C@H]1CC[C@H](O)CC1 [ambroxol],TMPRSS2 inhibition,"[2]; 40 μM, data not shown",did not show any TMPRSS2 inhibition
N=C(N)c1ccc2cc(O)ccc2c1 [6-amidino-2-naphthol],inhibition of prostasin,prostasin,do not inhibit
